Like-named read-outs stand apart in the source and are kept apart here.
Tests used:
[1] = molecular target: T1, ERα (Ishikawa endometrial carcinoma cells) (Homo sapiens, UniProt P03372); test: Estrogen-responsive alkaline phosphatase assay in ERα positive Ishikawa cells; assay type: cell-based; settings: for Emax: Ishikawa, read-out: ERα Maximum efficacy
T1 sequence (P03372 1-595): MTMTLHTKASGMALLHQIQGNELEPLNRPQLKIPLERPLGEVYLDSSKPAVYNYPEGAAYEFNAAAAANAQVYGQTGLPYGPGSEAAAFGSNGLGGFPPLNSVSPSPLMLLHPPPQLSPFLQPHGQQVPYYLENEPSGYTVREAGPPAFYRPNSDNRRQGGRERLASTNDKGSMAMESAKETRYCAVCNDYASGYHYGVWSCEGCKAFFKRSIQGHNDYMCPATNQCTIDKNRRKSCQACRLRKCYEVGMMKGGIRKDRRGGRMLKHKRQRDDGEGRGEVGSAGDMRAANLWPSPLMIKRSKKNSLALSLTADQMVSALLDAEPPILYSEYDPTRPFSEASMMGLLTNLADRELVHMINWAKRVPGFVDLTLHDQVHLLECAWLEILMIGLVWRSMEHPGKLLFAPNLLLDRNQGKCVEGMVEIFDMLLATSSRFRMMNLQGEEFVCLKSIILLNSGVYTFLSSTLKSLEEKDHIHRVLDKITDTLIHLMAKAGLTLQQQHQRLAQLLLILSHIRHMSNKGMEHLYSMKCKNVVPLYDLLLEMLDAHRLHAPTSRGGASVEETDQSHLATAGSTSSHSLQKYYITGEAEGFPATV

[2] = molecular target: T2, purified full length human recombinant ERα (Homo sapiens, UniProt P03372); test: ERα competitive binding assay
T2 sequence (P03372 1-595): T1 sequence (P03372 1-595)

[3] = molecular target: purified full length human recombinant ERβ (Homo sapiens, UniProt Q92731); test: ERβ competitive binding assay
Chain of purified full length human recombinant ERβ (Q92731 whole entry): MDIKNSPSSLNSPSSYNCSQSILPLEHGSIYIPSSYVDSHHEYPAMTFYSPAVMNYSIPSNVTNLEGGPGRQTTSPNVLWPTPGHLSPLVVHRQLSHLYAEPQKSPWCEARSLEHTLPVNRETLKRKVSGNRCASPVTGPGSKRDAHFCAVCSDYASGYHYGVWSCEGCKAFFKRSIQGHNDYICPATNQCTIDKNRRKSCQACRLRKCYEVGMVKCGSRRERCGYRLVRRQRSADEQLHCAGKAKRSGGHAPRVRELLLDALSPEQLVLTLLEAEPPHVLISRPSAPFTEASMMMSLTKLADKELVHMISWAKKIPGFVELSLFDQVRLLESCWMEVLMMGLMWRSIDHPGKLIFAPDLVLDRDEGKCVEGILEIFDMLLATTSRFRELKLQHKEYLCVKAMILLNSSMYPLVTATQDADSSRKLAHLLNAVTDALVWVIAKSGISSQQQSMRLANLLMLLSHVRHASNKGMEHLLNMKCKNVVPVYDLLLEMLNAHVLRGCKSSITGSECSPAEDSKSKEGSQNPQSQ

uterine tissue = settings: 8-PN in dietary concentrations; cited from earlier work
[4] = molecular target: T1, ERα (Ishikawa endometrial carcinoma cells); settings: read-out: ERα EC50 (LigF); compared with 8-PA; cited from earlier work
[5] = relative to 17β-E2, [3H]-E2 tracer 20 nM
[6] = alkaline phosphatase, Ishikawa cells, mean ± SEM
[7] = read-out: ERα EC50 (compounds), alkaline phosphatase, Ishikawa cells, mean ± SEM

Row | Compound | EC50 [1] | Emax [1] | ERα % RBA (relative binding affinity = IC50 E2/IC50 (iso)flavonoid x100) [2, 5] | ERβ % RBA (relative binding affinity = IC50 E2/IC50 (iso)flavonoid x100) [3, 5] | ERα Maximum efficacy [1, 6] | EC50 [1, 7] | also measured
1 | CC(C)=CCc1c(O)cc(O)c2c(=O)c(-c3ccc(O)cc3)coc12 [8-PG, 8-Prenylgenistein] | 500 ± 200 nM | 49 ± 10% | <0.002% | 0.9% | – | – | –
2 | CC(C)=CCc1c(O)cc(O)c2c1O[C@H](c1ccc(O)cc1)CC2=O [8-PN, 8-Prenylnaringenin] | – | – | – | – | – | – | Effect on uterine weight (uterine tissue): increased uterine weight
3 | CC(C)=CCc1c(O)cc(O)c2c(=O)c(O)c(-c3ccc(O)cc3)oc12 [DMI, Desmethylicaritin] | – | – | – | – | 67 ± 12 | 200 ± 20 nM | –
4 | O=C1C[C@@H](c2ccc(O)cc2)Oc2cc(O)ccc21 [LigF, liquiritigenin] | – | – | – | – | – | – | EC50 [4]: 3400 nM
5 | O=C1C[C@@H](c2ccc(O)cc2)Oc2cc(O)cc(O)c21 [NRG, naringenin] | 3700 ± 500 nM | 69 ± 6% | – | – | – | – | ERα % RBA (relative binding affinity = IC50 E2/IC50 (iso)flavonoid x100) [2]: <0.002%; ERβ % RBA (relative binding affinity = IC50 E2/IC50 (iso)flavonoid x100) [3]: 0.05%
6 | Dehydrogenistein [DGN] | – | – | <0.002% | 14% | 84 ± 4.0 | 800 ± 100 nM | –
